Structures are written as SMILES.

One experiment has as its system phantom limb pain. The settings on record: literature reports (Smith et al. 2005; Bergmans et al. 2002); cited from earlier work.
Another experiment concerns phantom limb syndrome. Kind of experiment: Two-month daily oral treatment of lower-limb amputee patients affected by phantom limb syndrome (ASIS, VAS, McGill Pain Questionnaire, QoL at t0, 30 and 60 days). In kind it is in vivo. The settings on record: lower-limb amputees, daily oral uptake for two months, evaluated at t0, 30 and 60 days. From the text:
In order not to negatively influence the test, it was decided not to include the following in such groups: diabetic patients (in order to avoid interferences with the symptoms of diabetic neuropathy and with the drugs used by the diabetic patient), subjects with psychiatric pathologies also at a compensation stage, subjects with serious cognitive deficits, subjects affected by active hepatic and/or renal pathologies, subjects with organ pathologies and/or other serious comorbidities.
Group A (reference) was subdivided into two uniform groups A1 and A2; group A1 was subjected to a conventional treatment, orally taking for two months a daily dosage amount of the neuromodulator Gabapentin, a known anti-epileptic drug with indications in the treatment of neuropathic pain, as described in US patent application publication No. US 2006/159743. Group A2 was subjected to the same treatment, substituting the neuromodulator Gabapentin with the analogous neuromodulator Pregabalin.
Groups B and C were subjected, during the same two-month period, to a daily uptake of the composition 1 and, respectively, 2 of the present invention, in the same daily dosage amount of 1,200 mg.
This text is aimed at investigating how an amputee perceives their own body image. It is constituted by 20 points; the subjects are asked to indicate their answer by using a scale from 1 (never) to 5 (always). […]

For `CCC(=O)C(CC(C)N(C)C)(c1ccccc1)c1ccccc1` (stereo not drawn) [methadone], in the experiment with phantom limb pain, the “effect on phantom limb pain (literature)” value is listed as “effective reduction of the phantom limb pain”.

Turning to `CC(C)C[C@H](CN)CC(=O)O` [pregabalin], in the experiment with phantom limb syndrome, the “phantom limb pain and stump pain (VAS and McGill Pain Questionnaire)” value is listed as “only experienced a certain decrease of the pain”; the “phantom limb sensation (sensation of possession of the missing limb, ASIS Amputee Body Image Scale)” value was “did not receive any benefit”.
